From patent US20220395553A1, “CXCR4 ANTAGONIST PEPTIDES” (COHBAR, INC., priority 2019, published 2022)
Square brackets hold non-standard residues; d marks the D form. Peptide text beside a SMILES is read from it.

What was measured:
human CXCR4 [1] = target: T1, human CXCR4 (Homo sapiens, UniProt P61073); test: CXCR4/CXCL12 binding, HTRF format, single concentration (Example 23); design: host or cells: HEK293 (Tag-lite CXCR4 cells, frozen aliquots, transient expression); settings: 15 nM CXCR4R fluorescent probe, 3 hours, HEK293 Tag-lite CXCR4 cells
Method: Peptides were initially prepared as 1 mM stock in H2O and tested at a final concentration of 400 nM. Following the manufacture's protocol, a frozen aliquot of Tag-lite CXCR4 cells was thawed and immediately seeded onto 384-well plates in TLB. Immediately following the addition of cells, 400 nM peptide (final concentration) in TLB was added to the appropriate well. Then 15 nM (final concentration; EC80) of CXCR4R fluorescent probe was added to each well to initiate the HTRF assay. The plates were covered in aluminum foil and left at room temperature for 3 hours. Following the 3 hour incubation period, the plates were removed from the incubator and fluorescence measured using a Cytation 1 plate reader using a HTRF filter cube ([…]; BioTek; Winooski, Vt.). According manufacture's instruction data reduction was performed by calculating the ratio of 665 nm signal (TRF of 665 nm excitation by 620 emission; amount of CXCR4R fluorescent probe bound to terbium labeled CXCR receptor)/620 nm signal (620 excitation by 330 nm light source; normalization factor for amount of terbium labeled CXCR4 receptor in well)×10,000.

human CXCR4 [2] = target: T1, human CXCR4; test: IC50 for inhibition of CXCR4 activation, β-Arrestin recruitment (Example 22); format: cell-based; design: host or cells: C2C12 (mouse myoblast) CXCR4 β-Arrestin PathHunter cell line
Method: The assay was run with the DiscoverX protocol. β-Arrestin recruitment assays were performed by Eurofins-DiscoverX (Fremont, Calif.) using C2C12 CXCR4 β-Arrestin cell line (co-expressing ProLink tagged human CXCR4 and Enzyme Acceptor tagged β-Arrestin) and PathHunter detection kit. Peptides were initially prepared as 1 mM stock in H2O and tested in ten (10)-step concentration response curves using 3-fold dilution steps with 1 μM as highest concentration; a concentration range of 1 μM-0.05 nM was tested. C2C12 CXCR4 β-Arrestin cells were seed onto 384-well plates in standard medium. […] At the end of the 90 min incubation period, β-Arrestin recruitment in response to various treatments was quantified using a chemiluminescent complementation reporter assay to measure association of tagged human […] (ProLink tag) and tagged β-Arrestin (Enzyme Acceptor tag).

[3] = system: CXCR4/CXCL12 induced p-MEK; test: CXCR4/CXCL12 induced p-MEK in Jurkat cells (ELISA); format: cell-based, human; settings: 5 nM CXCL12, 5 min
Method: The assay was performed following a protocol similar to that described by Peng, et al., Mol Cancer Ther., 14 480-90 (2015), incorporated herein by reference. […] Jurkat cells were resuspended in standard growth media (RPMI+GlutaMax media; Gibco/Thermo Fisher Scientific; Gaithersburg, Md.) containing 10% FBS and 1% penicillin/streptomycin. Assays were performed using fresh or conditioned media (media cultured overnight in presence of Jurkat cells) to resuspend cells at density of 2×10^6 cells/ml and […] of cell suspension was immediately placed in 1.7 ml microfuge tubes. […] Following the 5 min incubation, cells were centrifuged at 1000×g for 4 min at 4° C. The supernatant was removed and the cells were rinsed with 1 ml of HBSS containing calcium and magnesium. The HBSS was removed and the cells were immediately lysed in 150 l of lysis buffer included with Phospho-MEK1 (Ser217/221) Sandwich ELISA kit (Cell Signaling Technology; Danvers, Mass.); lysis buffer was supplemented with 1 m M PMSF (Millipore-Sigma; Saint Louis, Mo.) and Halt protease/phosphatase inhibitor cocktail (Thermo-Fisher; Waltham, Mass.) prior to use. The samples were then placed on ice for 10 min and vortexed periodically. Following the lysis step, the samples were centrifuged at 12,500 rpm for 10 min at 4° C. p-MEK expression in each of the samples was then measure using Phospho-MEK1 (Ser217/221) Sandwich ELISA kit according to manufacturer's instructions. Absorbance was measured using a Cytation 3 plate reader at […] (BioTek; Winooski, Vt.).

T1 sequence (P61073 whole entry): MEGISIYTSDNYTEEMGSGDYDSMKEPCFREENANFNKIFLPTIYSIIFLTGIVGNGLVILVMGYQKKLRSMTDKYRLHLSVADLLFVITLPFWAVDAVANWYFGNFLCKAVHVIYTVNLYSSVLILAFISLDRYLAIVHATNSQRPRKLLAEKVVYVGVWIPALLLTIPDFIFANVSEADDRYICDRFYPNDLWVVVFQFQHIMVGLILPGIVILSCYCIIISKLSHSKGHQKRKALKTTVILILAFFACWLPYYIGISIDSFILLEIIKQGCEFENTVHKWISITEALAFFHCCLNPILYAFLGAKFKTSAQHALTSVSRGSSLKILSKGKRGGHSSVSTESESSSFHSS

| SMILES | Percent Inhibition of CXCR4/CXCL12 Binding (400 nM peptide) (human CXCR4 [1]) [%] | IC50 (human CXCR4 [2]) [nM] | Percent Inhibition of CXCR4/CXCL12 Induced p-MEK (100 nM Test Article) [3] [%] | Percent Inhibition of CXCR4/CXCL12 Induced p-MEK (1 μM Test Article) [3] [%] |
| --- | --- | --- | --- | --- |
| CC(C)C[C@H](NC(=O)[C@H](CO)NC(=O)[C@H](CO)NC(=O)[C@H](CCCNC(=N)N)NC(=O)[C@@H](NC(=O)[C@H](CO)NC(=O)[C@H](Cc1c[nH]cn1)NC(=O)[C@H](Cc1c[nH]cn1)NC(=O)[C@H](Cc1ccc(O)cc1)NC(=O)[C@H](CCCNC(=N)N)NC(=O)[C@H](CCC(=O)O)NC(=O)[C@@H](N)CC(C)C)C(C)C)C(=O)O [compound 22] (H-LERYHHSVRSSL-OH; N-terminus and C-terminus assumed) | 14 | 17 |  |  |
| CC(C)C[C@H](NC(=O)[C@H](CO)NC(=O)[C@H](CO)NC(=O)[C@H](CCCNC(=N)N)NC(=O)[C@@H](NC(=O)[C@H](CO)NC(=O)[C@H](Cc1c[nH]cn1)NC(=O)[C@H](Cc1c[nH]cn1)NC(=O)[C@H](Cc1ccc(O)cc1)NC(=O)[C@@H](N)CCCNC(=N)N)C(C)C)C(=O)N[C@@H](CCCNC(=N)N)C(=O)N1CCC[C@H]1C(=O)N[C@@H](Cc1ccc(O)cc1)C(=O)N[C@H](C(=O)N[C@@H](CCCCN)C(=O)O)[C@@H](C)O [compound 11] (H-RYHHSVRSSLRPYTK-OH; N-terminus and C-terminus assumed) | −9 | 175 |  |  |
| CC(C)C[C@H](NC(=O)[C@H](CO)NC(=O)[C@H](CO)NC(=O)[C@H](CCCNC(=N)N)NC(=O)[C@@H](NC(=O)[C@H](CO)NC(=O)[C@H](Cc1c[nH]cn1)NC(=O)[C@H](Cc1c[nH]cn1)NC(=O)[C@H](Cc1ccc(O)cc1)NC(=O)[C@H](CCCNC(=N)N)NC(=O)[C@H](CCC(=O)O)NC(=O)[C@@H](N)CC(C)C)C(C)C)C(=O)N[C@@H](CCCNC(=N)N)C(=O)N1CCC[C@H]1C(=O)N[C@@H](Cc1ccc(O)cc1)C(=O)O [compound 19] (H-LERYHHSVRSSLRPY-OH; N-terminus and C-terminus assumed) | 44 |  |  |  |
| CC(C)C[C@H](N)C(=O)N[C@@H](CCCNC(=N)N)C(=O)N[C@@H](CCCNC(=N)N)C(=O)N[C@@H](Cc1ccc(O)cc1)C(=O)N[C@@H](Cc1c[nH]cn1)C(=O)N[C@@H](Cc1c[nH]cn1)C(=O)N[C@@H](CO)C(=O)N[C@H](C(=O)N[C@@H](CCCNC(=N)N)C(=O)N[C@@H](CO)C(=O)N[C@@H](CO)C(=O)O)C(C)C [compound 29] (H-LRRYHHSVRSS-OH; N-terminus and C-terminus assumed) | 14 |  |  |  |
| CC(C)C[C@H](NC(=O)[C@H](CO)NC(=O)[C@H](CO)NC(=O)[C@H](CCCNC(=N)N)NC(=O)[C@@H](NC(=O)[C@H](CO)NC(=O)[C@H](Cc1c[nH]cn1)NC(=O)[C@H](Cc1c[nH]cn1)NC(=O)[C@H](Cc1ccc(O)cc1)NC(=O)[C@H](CCCNC(=N)N)NC(=O)[C@H](CCCNC(=N)N)NC(=O)[C@@H](N)CC(C)C)C(C)C)C(=O)N[C@@H](CCCNC(=N)N)C(=O)N1CCC[C@H]1C(=O)N[C@@H](Cc1ccc(O)cc1)C(=O)O [compound 25] (H-LRRYHHSVRSSLRPY-OH; N-terminus and C-terminus assumed) | 0 |  |  |  |

Now from value to compound, other results behind:

| Percent Inhibition of CXCR4/CXCL12 Binding (400 nM peptide) (human CXCR4 [1]) [%] | IC50 (human CXCR4 [2]) [nM] | SMILES | Percent Inhibition of CXCR4/CXCL12 Induced p-MEK (100 nM Test Article) [3] [%] | Percent Inhibition of CXCR4/CXCL12 Induced p-MEK (1 μM Test Article) [3] [%] |
| --- | --- | --- | --- | --- |
| −5 |  | CC(C)C[C@H](NC(=O)[C@H](CO)NC(=O)[C@H](CO)NC(=O)[C@H](CC(=O)O)NC(=O)[C@@H](NC(=O)[C@H](CO)NC(=O)[C@H](Cc1c[nH]cn1)NC(=O)[C@H](Cc1c[nH]cn1)NC(=O)[C@H](Cc1ccc(O)cc1)NC(=O)[C@H](CCCNC(=N)N)NC(=O)[C@H](CCCNC(=N)N)NC(=O)[C@@H](N)CC(C)C)C(C)C)C(=O)N[C@@H](CCCNC(=N)N)C(=O)N1CCC[C@H]1C(=O)N[C@@H](Cc1ccc(O)cc1)C(=O)N[C@H](C(=O)N[C@@H](CCCCN)C(=O)O)[C@@H](C)O [compound 66] (H-LRRYHHSVDSSLRPYTK-OH; N-terminus and C-terminus assumed) | −7 | 13 |
| 72 |  | CC(C)C[C@H](NC(=O)[C@H](CO)NC(=O)[C@H](CO)NC(=O)[C@H](CCCNC(=N)N)NC(=O)[C@@H](C)NC(=O)[C@H](CO)NC(=O)[C@H](Cc1c[nH]cn1)NC(=O)[C@H](Cc1c[nH]cn1)NC(=O)[C@H](Cc1ccc(O)cc1)NC(=O)[C@H](CCCNC(=N)N)NC(=O)[C@H](CCC(=O)O)NC(=O)[C@@H](N)CC(C)C)C(=O)N[C@@H](CCCNC(=N)N)C(=O)N1CCC[C@H]1C(=O)N[C@@H](Cc1ccc(O)cc1)C(=O)N[C@@H](CO)C(=O)N[C@@H](CCCCN)C(=O)O [compound 78] (H-LERYHHS[dA]RSSLRPYSK-OH; N-terminus and C-terminus assumed) | 29 | 46 |
| −13 |  | CC(C)C[C@H](NC(=O)[C@H](CO)NC(=O)[C@H](CO)NC(=O)[C@H](CCCNC(=N)N)NC(=O)[C@@H](C)NC(=O)[C@H](CO)NC(=O)[C@H](Cc1c[nH]cn1)NC(=O)[C@H](Cc1c[nH]cn1)NC(=O)[C@H](Cc1ccc(O)cc1)NC(=O)[C@H](CCCNC(=N)N)NC(=O)[C@H](CCC(=O)O)NC(=O)[C@@H](C)N)C(=O)N[C@@H](CCCNC(=N)N)C(=O)N1CCC[C@H]1C(=O)N[C@@H](Cc1ccc(O)cc1)C(=O)N[C@H](C(=O)N[C@@H](CCCCN)C(=O)O)[C@@H](C)O [compound 35] (H-[dA]ERYHHS[dA]RSSLRPYTK-OH; N-terminus and C-terminus assumed) | −7 | −6 |
| 0 |  | CC(C)C[C@H](NC(=O)[C@H](CO)NC(=O)[C@H](CO)NC(=O)[C@H](CCCNC(=N)N)NC(=O)[C@@H](NC(=O)[C@H](CO)NC(=O)[C@H](CC(N)=O)NC(=O)[C@H](Cc1c[nH]cn1)NC(=O)[C@H](Cc1ccc(O)cc1)NC(=O)[C@H](CCCNC(=N)N)NC(=O)[C@H](CCCNC(=N)N)NC(=O)[C@@H](N)CC(C)C)C(C)C)C(=O)N[C@@H](CCCNC(=N)N)C(=O)N1CCC[C@H]1C(=O)N[C@@H](Cc1ccc(O)cc1)C(=O)N[C@H](C(=O)N[C@@H](CCCCN)C(=O)O)[C@@H](C)O [compound 44] (H-LRRYHNSVRSSLRPYTK-OH; N-terminus and C-terminus assumed) |  |  |
| −8 |  | CC(C)C[C@H](NC(=O)[C@H](CO)NC(=O)[C@H](CO)NC(=O)[C@H](CCCNC(=N)N)NC(=O)[C@@H](NC(=O)[C@H](CO)NC(=O)[C@H](Cc1c[nH]cn1)NC(=O)[C@H](Cc1c[nH]cn1)NC(=O)[C@H](Cc1ccc(O)cc1)NC(=O)[C@H](CCCNC(=N)N)NC(=O)[C@@H](N)CCCNC(=N)N)C(C)C)C(=O)N[C@@H](CCCNC(=N)N)C(=O)N1CCC[C@H]1C(=O)N[C@@H](Cc1ccc(O)cc1)C(=O)N[C@H](C(=O)N[C@@H](CCCCN)C(=O)O)[C@@H](C)O [compound 10] (H-RRYHHSVRSSLRPYTK-OH; N-terminus and C-terminus assumed) |  |  |
| 20 |  | CC(C)C[C@H](NC(=O)[C@H](CO)NC(=O)[C@H](CO)NC(=O)[C@H](CCCNC(=N)N)NC(=O)[C@@H](C)NC(=O)[C@H](CO)NC(=O)[C@H](Cc1c[nH]cn1)NC(=O)[C@H](CCC(N)=O)NC(=O)[C@H](Cc1ccc(O)cc1)NC(=O)[C@H](CCCNC(=N)N)NC(=O)[C@H](CCC(=O)O)NC(=O)[C@@H](N)CC(C)C)C(=O)N[C@@H](CCCNC(=N)N)C(=O)N1CCC[C@H]1C(=O)N[C@@H](Cc1ccc(O)cc1)C(=O)N[C@H](C(=O)N[C@@H](CCCCN)C(=O)O)[C@@H](C)O [compound 49] (H-LERYQHS[dA]RSSLRPYTK-OH; N-terminus and C-terminus assumed) |  |  |
